In ChEMBL document CHEMBL1201862, “PubChem BioAssay data set” (2004):
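Five compound concentrations were applied to cells in 96-well plates for 48 hours; endpoints were derived by simple linear interpolation of the resulting dose-response curve. At the GI50, growth is halved.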 Calls of active or inactive are those of the source. Cut-off read from the data, not from the text of the source: active = GI50 up to about 1.1 µM and inactive = higher.

Key:
Assay in all cases: growth of human tumour cells (NCI), 48 h
MDA-MB-231 = system: MDA-MB-231
OVCAR-3 = system: OVCAR-3
T47D = system: T47D
SF-539 = system: SF-539
NCI-H23 = system: NCI-H23
HCT-116 = system: HCT-116
OVCAR-4 = system: OVCAR-4
M14 = system: M14
HT-29 = system: HT-29
UACC-62 = system: UACC-62
SF-268 = system: SF-268
MCF7 = system: MCF7
SNB-75 = system: SNB-75
PC-3 = system: PC-3
Malme-3M = system: Malme-3M
U-251 = system: U-251
SK-MEL-5 = system: SK-MEL-5
SK-OV-3 = system: SK-OV-3
NCI-H522 = system: NCI-H522
SF-295 = system: SF-295

Compound | GI50 (MDA-MB-231) | GI50 (OVCAR-3) | GI50 (T47D) | GI50 (SF-539) | GI50 (NCI-H23) | GI50 (HCT-116) | GI50 (OVCAR-4) | GI50 (M14) | GI50 (HT-29) | GI50 (UACC-62) | GI50 (SF-268) | GI50 (MCF7) | GI50 (SNB-75) | GI50 (PC-3) | GI50 (Malme-3M) | GI50 (U-251) | GI50 (SK-MEL-5) | GI50 (SK-OV-3) | GI50 (NCI-H522) | GI50 (SF-295)
COc1ccc2[nH]c(CCNC(=O)c3cc([N+](=O)[O-])cc([N+](=O)[O-])c3)cc2c1 | 25.4 µM (inactive) | > 100 µM (inactive) | 29.9 µM (inactive) | 29.8 µM (inactive) | 47.9 µM (inactive) | > 100 µM (inactive) | > 100 µM (inactive) | > 100 µM (inactive) | > 100 µM (inactive) | 36.1 µM (inactive) | 25 µM (inactive) | 69.3 µM (inactive) | 19.4 µM (inactive) | > 100 µM (inactive) | > 100 µM (inactive) | 14.7 µM (inactive) | > 100 µM (inactive) | 41 µM (inactive) | – | –
COc1cc2c(cc1OCCCOS(C)(=O)=O)N=C[C@@H]1CCCN1C2=O | > 100 µM (inactive) | > 100 µM (inactive) | > 100 µM (inactive) | > 100 µM (inactive) | > 100 µM (inactive) | > 100 µM (inactive) | – | > 100 µM (inactive) | > 100 µM (inactive) | > 100 µM (inactive) | > 100 µM (inactive) | > 100 µM (inactive) | – | – | > 100 µM (inactive) | > 100 µM (inactive) | > 100 µM (inactive) | > 100 µM (inactive) | > 100 µM (inactive) | > 100 µM (inactive)
COCCOC(=O)c1c(C)[n+]([O-])c2cc(Cl)c(Cl)cc2[n+]1[O-] | 24.1 µM (inactive) | 13.4 µM (inactive) | 4.68 µM (inactive) | 22.6 µM (inactive) | 19.8 µM (inactive) | – | 14.4 µM (inactive) | 18.6 µM (inactive) | 18.7 µM (inactive) | 14.8 µM (inactive) | 14.2 µM (inactive) | 11.1 µM (inactive) | – | 21.3 µM (inactive) | 18.5 µM (inactive) | 9.82 µM (inactive) | 7.6 µM (inactive) | 17.9 µM (inactive) | 17.1 µM (inactive) | 17.1 µM (inactive)
Cc1cc(OCc2nnc3sc(NC(=O)c4ccccc4)nn23)ccc1Cl | 42.4 µM (inactive) | 30.7 µM (inactive) | 44.4 µM (inactive) | > 100 µM (inactive) | 30.7 µM (inactive) | 28.7 µM (inactive) | > 100 µM (inactive) | 27.4 µM (inactive) | 38.4 µM (inactive) | 33.3 µM (inactive) | 45 µM (inactive) | 30.3 µM (inactive) | – | 33.7 µM (inactive) | 21.4 µM (inactive) | 33.3 µM (inactive) | 32.4 µM (inactive) | 59.6 µM (inactive) | 30.6 µM (inactive) | 36.6 µM (inactive)
N#Cc1c(N)nc(Sc2ccccc2N)c(C#N)c1-c1ccc(Cl)cc1 | 9.77 µM (inactive) | 6.34 µM (inactive) | 0.368 µM (active) | 11.8 µM (inactive) | 21.4 µM (inactive) | 6.81 µM (inactive) | 17.8 µM (inactive) | 10.5 µM (inactive) | 7.71 µM (inactive) | 4.06 µM (inactive) | 6.24 µM (inactive) | 7.05 µM (inactive) | – | 3.71 µM (inactive) | 6.61 µM (inactive) | 7.59 µM (inactive) | 12.6 µM (inactive) | 12 µM (inactive) | 11.6 µM (inactive) | 6.65 µM (inactive)
OCCSCCCSCCO | > 100 µM (inactive) | > 100 µM (inactive) | > 100 µM (inactive) | > 100 µM (inactive) | > 100 µM (inactive) | > 100 µM (inactive) | > 100 µM (inactive) | > 100 µM (inactive) | > 100 µM (inactive) | > 100 µM (inactive) | > 100 µM (inactive) | > 100 µM (inactive) | > 100 µM (inactive) | > 100 µM (inactive) | – | > 100 µM (inactive) | > 100 µM (inactive) | > 100 µM (inactive) | > 100 µM (inactive) | > 100 µM (inactive)
CCOC(=O)C(C)c1nc2ccc(C(F)(F)F)cc2[nH]c1=O (stereo not given) | 77.1 µM (inactive) | 28 µM (inactive) | 23.8 µM (inactive) | > 100 µM (inactive) | 49.9 µM (inactive) | 72.8 µM (inactive) | 42.5 µM (inactive) | 80 µM (inactive) | 51.6 µM (inactive) | 39.8 µM (inactive) | 87.1 µM (inactive) | 60.8 µM (inactive) | 46.6 µM (inactive) | 36.9 µM (inactive) | 97.7 µM (inactive) | > 100 µM (inactive) | 52.7 µM (inactive) | > 100 µM (inactive) | – | 45.5 µM (inactive)
CN(Cc1cnc2nc(N)nc(N)c2n1)c1ccc(C(=O)NC(CCC(=O)O)C(=O)O)c2ccccc12 (stereo not given) | < 0.1 µM (active) | 0.0429 µM (active) | 0.204 µM (active) | 0.00577 µM (active) | 0.00773 µM (active) | 0.000647 µM (active) | < 0.1 µM (active) | 0.00869 µM (active) | 0.00168 µM (active) | 0.00148 µM (active) | 0.00536 µM (active) | 0.00163 µM (active) | 0.0693 µM (active) | 0.000479 µM (active) | 0.0356 µM (active) | 0.0114 µM (active) | 0.0107 µM (active) | 0.0456 µM (active) | – | 0.00604 µM (active)
CC1(c2sccc2Cl)CC(c2sccc2Cl)=C(C#N)C(=C(C#N)C#N)N1 (stereo not given) | 21.9 µM (inactive) | 14.9 µM (inactive) | 14.2 µM (inactive) | 19.8 µM (inactive) | 17.9 µM (inactive) | 17.2 µM (inactive) | 25.1 µM (inactive) | 18.6 µM (inactive) | 24 µM (inactive) | 18.3 µM (inactive) | 20.2 µM (inactive) | 22.8 µM (inactive) | – | 18.7 µM (inactive) | 17.6 µM (inactive) | 18.5 µM (inactive) | 18.5 µM (inactive) | 17.5 µM (inactive) | 19.1 µM (inactive) | 17.9 µM (inactive)
CCCCC1C=Cn2c(=O)oc3c(OC(C)C)c(OC(C)C)c(O)c1c32 (stereo not given) | 14.1 µM (inactive) | 16.4 µM (inactive) | 4.44 µM (inactive) | 23.6 µM (inactive) | 12.2 µM (inactive) | 17.4 µM (inactive) | 21.5 µM (inactive) | 22.3 µM (inactive) | 14.6 µM (inactive) | 13.4 µM (inactive) | 18.5 µM (inactive) | 12.2 µM (inactive) | 13 µM (inactive) | 38.2 µM (inactive) | – | 16 µM (inactive) | 14.7 µM (inactive) | 25.2 µM (inactive) | 11.6 µM (inactive) | 18.5 µM (inactive)
O=C1c2cc3ccccc3cc2C2(c3ccc(Cl)cc3)NCCN12 (stereo not given) | 87.7 µM (inactive) | 23.6 µM (inactive) | 39.7 µM (inactive) | 23 µM (inactive) | 22.1 µM (inactive) | 18 µM (inactive) | 52.5 µM (inactive) | 26.8 µM (inactive) | 34.8 µM (inactive) | 19.2 µM (inactive) | 44.2 µM (inactive) | 26.2 µM (inactive) | 27.8 µM (inactive) | 31.1 µM (inactive) | – | 34.9 µM (inactive) | 20 µM (inactive) | 29.3 µM (inactive) | – | 25.5 µM (inactive)
Cc1[nH]n(C2=NCCN2)c(=O)c1Cc1ccccc1 | > 100 µM (inactive) | > 100 µM (inactive) | > 100 µM (inactive) | > 100 µM (inactive) | > 100 µM (inactive) | > 100 µM (inactive) | > 100 µM (inactive) | > 100 µM (inactive) | > 100 µM (inactive) | > 100 µM (inactive) | > 100 µM (inactive) | > 100 µM (inactive) | – | > 100 µM (inactive) | > 100 µM (inactive) | > 100 µM (inactive) | > 100 µM (inactive) | > 100 µM (inactive) | > 100 µM (inactive) | > 100 µM (inactive)
Nc1nc(N)c(N=O)c(OCC2CCCCC2)n1 | 5.02 µM (inactive) | 8.47 µM (inactive) | 5.57 µM (inactive) | 8.91 µM (inactive) | 12.2 µM (inactive) | 9.12 µM (inactive) | 10 µM (inactive) | 8.47 µM (inactive) | 9.64 µM (inactive) | 6.98 µM (inactive) | 8.49 µM (inactive) | 4.3 µM (inactive) | 5.01 µM (inactive) | 6.41 µM (inactive) | – | 15.7 µM (inactive) | 9.73 µM (inactive) | 19 µM (inactive) | 5.96 µM (inactive) | 13 µM (inactive)
O=C(O)c1nc2cc(C(F)(F)F)ccc2[nH]c1=O | > 100 µM (inactive) | > 100 µM (inactive) | > 100 µM (inactive) | > 100 µM (inactive) | > 100 µM (inactive) | > 100 µM (inactive) | > 100 µM (inactive) | > 100 µM (inactive) | > 100 µM (inactive) | > 100 µM (inactive) | > 100 µM (inactive) | > 100 µM (inactive) | – | > 100 µM (inactive) | > 100 µM (inactive) | > 100 µM (inactive) | > 100 µM (inactive) | > 100 µM (inactive) | > 100 µM (inactive) | > 100 µM (inactive)
Cn1c(-c2cccs2)cc(-c2cccs2)c1-c1ccco1 | 51.4 µM (inactive) | 19.2 µM (inactive) | 1.06 µM (active) | > 100 µM (inactive) | 3.02 µM (inactive) | 27.7 µM (inactive) | 1.7 µM (inactive) | 26.4 µM (inactive) | > 67.6 µM (inactive) | 30.9 µM (inactive) | > 66.4 µM (inactive) | 0.473 µM (active) | 31.8 µM (inactive) | 72.6 µM (inactive) | – | 56.1 µM (inactive) | 23.8 µM (inactive) | > 100 µM (inactive) | 21.2 µM (inactive) | 29.4 µM (inactive)
